Measurements as given in US20250049967A1, “PET TRACERS FOR V[…] GAMMA1 RECEPTORS” (Hoffmann-La Roche Inc., priority 2022, published 2025).

How the values were obtained:
[1] = molecular target: h-GABA-A α2β2γ1 receptor (Homo sapiens (Human), UniProt P47869+Q8N1C3); assay: Xenopus oocyte two-electrode voltage clamp electrophysiology, modulation of GABA EC20 current; assay type: cell-based; settings: for Efficacy (GABA)%: % modulation of GABA EC20 = 100*(Fold increase−1), compound at 30-fold Ki α2β2γ1; for Potentiation of GABA-induced current in α2β2γ1 expressing oocytes: reference PAMs, GABA EC20
Description: Xenopus laevis oocytes at maturation stages V-VI were used for the expression of cloned mRNA encoding GABAA receptor subunits. Oocytes ready for RNA micro-injection were bought from Ecocyte, Castrop-Rauxel, Germany and stored in modified Barth's medium (composition in mM: NaCl 88, KCl 1, NaHCO3 2.4, HEPES 10, MgSO4 0.82, CaNO3 0.33, CaCl2 0.33, pH=7.5) at 20° C. until the experiment.
Oocytes were plated in 96-well plates for microinjection using the Roboinject automated instrument (MultiChannelSystems, Reutlingen, Germany). Approximately 50 nL of an aqueous solution containing the RNA transcripts for the subunits of the desired GABAA receptor subtype was injected into each oocyte. […] Oocytes were kept in modified Barth's medium (composition in mM: NaCl 88, KCl 1, NaHCO3 […], HEPES 10, MgSO4 0.82, CaNO3 0.33, CaCl2 0.33, pH=7.5) at 20° C. until the experiment.
Electrophysiological experiments were performed using the Roboocyte instrument (MultiChannelSystems, Reutlingen, Germany) on days 3 to 5 after the micro-injection of mRNA. During the experiment the oocytes were constantly superfused by a solution containing (in mM) NaCl 90, KCl 1, HEPES 5, MgCl2 1, CaCl2 1 (pH 7.4). Oocytes were impaled by two glass microelectrodes (resistance: 0.5-0.8 MΩ) which were filled with a solution containing KCl 1M+K-acetate 1.5 M and voltage-clamped to −80 mV. The recordings were performed at room temperature using the Roboocyte two-electrode voltage clamp system (Multichannelsystem). After an initial equilibration period of 1.5 min GABA was added for 1.5 min at a concentration evoking approximately 20% of a maximal current response (EC20). After another rest interval of 2.5 min GABA was again added evoking a response of similar amplitude and shape. […] Current traces were recorded at a digitization rate of 10 Hz during and shortly before and after the GABA application.
Each compound and concentration was tested on at least 3 oocytes. Different oocytes were used for different compound concentrations.
For the analysis, the digitized current traces of the first and second GABA response were superimposed and, if necessary, rescaled to equal maximal amplitudes. The ratio between the two responses during the time interval of test compound application was calculated point by point. The extremum of the resulting “ratio trace” was taken as the efficacy (“Fold increase”) of the compound expressed as “% modulation of GABA EC20” (100*(Fold increase−1)).

[2] = molecular target: human GABAA α1β3γ2 receptor (Homo sapiens (Human), UniProt P14867+P18507); assay: Binding assay, competition for [^3H]Flumazenil, HEK293F cells; settings: for γ2/γ1 Selectivity Ratio: Ki α1β3γ2 (nM)/Ki α2β2γ1 (nM)
Description: The affinity of compounds at GABAA γ2 subunit-containing receptors was measured by competition for [^3H]Flumazenil (81.1 Ci/mmol; Roche) binding to HEK293F cells expressing human (transiently transfected) receptors of composition α1β3γ2.
Harvested pellets from HEK293F cells expressing the different GABAA γ2 receptor subtypes were resuspended in Mannitol Buffer pH 7.2-7.4 and processed as described above for the cells expressing the GABAA γ1 subunit-containing receptors.
Assays were incubated to equilibrium for 1 hour at 4° C. and harvested onto GF/C uni-filters (Packard) by filtration using a Packard harvester and washing with ice-cold wash buffer (50 mM Tris; pH 7.5). After anhydrousing, filter-retained radioactivity was detected by liquid scintillation counting. Ki values were calculated using Excel-Fit (Microsoft) and are the means of two determinations.

[3] = molecular target: human GABAA α2β2γ1 receptor (Homo sapiens (Human), UniProt P47869+Q8N1C3); assay: Binding assay, competition for [^3H]RO7239181, membranes from HEK293F cells
Description: (§1) Harvested pellets from HEK293F cells expressing the different GABAA receptor subtypes were resuspended in Mannitol Buffer pH 7.2-7.4 (Mannitol 0.29M, Triethylamine 10 mM, Acetic acid 10 mM, EDTA 1 mM plus protease inhibitors (20 tablets Complete, Roche Diagnostics Cat. No. 05 056 489 001 per liter)), washed two times and then resuspended at 1:10 to 1:15 dilution in the same buffer. Cell disruption was performed by stirring the suspension in a Parr vessel #4637 at 435 psi for 15 minutes, and then the suspensions were centrifuged at 1000×g for 15 minutes at 4° C. (Beckman Avanti J-HC; rotor JS-4.2). The supernatant (S1) was transferred in a 2 l Schott flask and the pellet (P1) was resuspended with Mannitol Buffer up to 175 ml. The resuspended pellet was transferred into a 250 ml Corning centrifugal beaker and centrifuged at 1500×g for 10 minutes at 4° C. (Beckman Avanti J-HC; rotor JS-4.2). The supernatant (S1) was then transferred in the 2 l Schott flask and the pellet was discarded. […] The P2 and P3 protein concentration was determined with the BIORAD Standard assay method with bovine serum albumin as standard and measured on the NANO-Drop 1000. […]
(§2) Membrane homogenates were resuspended and polytronised (Polytron PT1200E Kinematica AG) in Potassium Phosphate 10 mM, KCl 100 mM binding buffer at pH 7.4 to a final assay concentration determined with a previous experiment. […]

[4] = molecular target: human GABAA α1β2γ1 receptor (Homo sapiens (Human), UniProt P14867+Q8N1C3); assay: as above
Description: as §1, §2

[5] = molecular target: GABAA γ1 receptor (Mus musculus (Mouse), UniProt Q9R0Y8); assay: In vitro autoradiography, coronal brain sections of GABAA γ1 knockout and wild-type mice; assay type: binding; settings: 0.3 nM radioligand, 30 minutes room temperature, knockout vs wild-type mouse brain sections
Description: Autoradiographical analyses of [^3H]-(I) and [^3H]-(II) were performed with coronal brain sections from GABAA γ1 receptor knockout mice (C57BL/6NTac-Gabrg1) and wild-type controls. Tissue sections (10 μm) were cut in a cryostat, thaw-mounted on microscope glass slides and incubated in incubation buffer (50 mM Tris-HCl, pH 7.4) containing 0.3 nM radioligand (molar activity 83 Ci/mmol and 81 Ci/mmol for [^3H]-(II) and [^3H]-(I), respectively) at room temperature for 30 minutes. After incubation, all sections were rinsed three times in ice-cold wash buffer (50 mM Tris-HCl, pH 7.4) for 10 minutes and dipped three times in distilled water at 4° C. Slide-mounted brain sections were dried in a ventilated fridge for at least 2 hours and exposed to a Fuji Imaging Plate for 5 days. The imaging plate was scanned at a resolution of 25 μm in a Fujifilm high-resolution plate scanner. Visualization and quantification of autoradiographies was performed by the MCID™ image analysis program.

[6] = system: GABAA γ1 receptor; assay: In vivo PET scans in baboons, regional time-activity curves; set-up: species or system papio anubis olive brown baboons; settings: baboon, intravenous bolus approx. 700 MBq, 90 min scan
Description: PET imaging experiments were performed in male papio anubis olive brown baboons to examine the characteristics of [^11C]-(I) and [^11C]-(II) in vivo. The final radiotracer product was radiochemically pure (>95%) up to 40 min post its end of synthesis with an average final calculated specific activity of >555 GBq/μmol. The PET camera used was the Siemens HRRT with an in-plane field-of-view (FOV) of 30 cm and an axial FOV of 24 cm. Each dynamic PET scan started with an intravenous bolus injection of the radiotracer (approx. 700 MBq) and continued for 90 min in a 3D list mode. A set of volumes of interest (VOIs) for 16 brain regions were defined on MRIs of individual animals referring to a standard VOI template. VOIs were transferred to PET space using the coregistration parameters to generate time-activity curves (TACs) of brain regions.

Sequence of GABAA γ1 receptor (Mus musculus (Mouse), UniProt Q9R0Y8) (Q9R0Y8 36-465 limits assumed): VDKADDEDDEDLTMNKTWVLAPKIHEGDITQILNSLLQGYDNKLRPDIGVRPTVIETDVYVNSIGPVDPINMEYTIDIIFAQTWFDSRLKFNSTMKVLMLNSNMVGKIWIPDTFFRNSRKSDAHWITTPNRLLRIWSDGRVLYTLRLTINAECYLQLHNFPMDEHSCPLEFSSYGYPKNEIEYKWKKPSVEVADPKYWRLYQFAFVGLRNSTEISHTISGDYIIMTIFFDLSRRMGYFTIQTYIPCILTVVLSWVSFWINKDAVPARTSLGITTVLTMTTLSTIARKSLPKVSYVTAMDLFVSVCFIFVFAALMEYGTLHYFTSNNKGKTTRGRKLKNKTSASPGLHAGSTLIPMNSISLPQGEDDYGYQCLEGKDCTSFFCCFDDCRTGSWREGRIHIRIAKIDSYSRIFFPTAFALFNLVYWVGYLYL

CN1C(=O)CN=C(c2cc(O)ccc2F)c2c1ccc(Cl)c2Cl [Example 1, 6,7-dichloro-5-(2-fluoro-5-hydroxy-phenyl)-1-methyl-3H-1,4-benzodiazepin-2-one]
Efficacy (GABA)% [1]: 90%
γ2/γ1 Selectivity Ratio [2]: 12.7

Cc1ccc2c(c1Cl)C(c1cc(O)ccc1F)=NCC(=O)N2C [Example 2, 6-chloro-5-(2-fluoro-5-hydroxy-phenyl)-1,7-dimethyl-3H-1,4-benzodiazepin-2-one]
Efficacy (GABA)% [1]: 70%
γ2/γ1 Selectivity Ratio [2]: 39.0

CN1C(=O)CN=C(c2ccccc2F)c2cc([N+](=O)[O-])ccc21 [Flunitrazepam]
Potentiation of GABA-induced current in α2β2γ1 expressing oocytes [1]: ~60%

Cc1ncc2n1-c1ccc(Cl)cc1C(c1ccccc1F)=NC2 [Midazolam]
Potentiation of GABA-induced current in α2β2γ1 expressing oocytes [1]: ~60%

CN1C(=O)CN=C(c2cc(O)ccc2Cl)c2cc(Cl)ccc21 [RE-A, reference compound]
Ki [3]: 2.79 nM
Ki [4]: 6.84 nM
Ki [2]: 1.5 nM
γ2/γ1 Selectivity Ratio [2]: 0.54

Cc1nnc2n1-c1ccc(Cl)cc1C(c1ccccc1Cl)=NC2 [Triazolam]
Potentiation of GABA-induced current in α2β2γ1 expressing oocytes [1]: ~60%

[3H]C([3H])([3H])N1C(=O)CN=C(c2cc(O)ccc2F)c2c1ccc(Cl)c2Cl [[^3H]-(I), 6,7-Dichloro-5-(2-fluoro-5-hydroxy-phenyl)-1-([^3H3]methyl)-3H-1,4-benzodiazepin-2-one]
Specific binding in the amygdala [5]: 65%

[3H]C([3H])([3H])N1C(=O)CN=C(c2cc(O)ccc2F)c2c1ccc(C)c2Cl [[^3H]-(II), 6-Chloro-5-(2-fluoro-5-hydroxy-phenyl)-7-methyl-1-([^3H3]methyl)-3H-1,4-benzodiazepin-2-one]
Specific binding in the amygdala [5]: 97%

[11CH3]N1C(=O)CN=C(c2cc(O)ccc2F)c2c1ccc(Cl)c2Cl [[^11C]-(I), [^11C]6,7-Dichloro-5-(2-fluoro-5-hydroxy-phenyl)-1-methyl-3H-1,4-benzodiazepin-2-one]
Brain clearance [6]: Slower clearance

Cc1ccc2c(c1Cl)C(c1cc(O)ccc1F)=NCC(=O)N2[11CH3] [[^11C]-(II), [^11C]6-Chloro-5-(2-fluoro-5-hydroxy-phenyl)-1,7-dimethyl-3H-1,4-benzodiazepin-2-one]
Time of brain uptake peaks ([6]; comparison of tracers): earlier peaks than [^11C]-(I)
